Reference: US4238491A (priority 1977, dated 1980)
Like-named read-outs stand apart in the source and are kept apart here.

Legend:
motorability = assay: Effect on motorability (rotating bar); type: in vivo, mouse (dd-strain); settings: 25 mg/kg oral, 3 hours after, 10 examined
Description: 25 mg/kg of MR were administered to 10 mice per one group. The mice were put on a wooden bar of 2 cm diameter which rotated at 10 r.p.m., and the number of mice which fell down from the bar was counted.

Solubility = type: physicochemical
blood pressure of SHR [1] = assay: Antihypertensive effect by repeated administration, SHR; type: in vivo, rat (spontaneously hypertensive rats
Description: The effect was determined through a direct cannulation by using male SHRs aged 25 to 30 weeks and weighing about 300 g. […] Blood pressures were measured twice a day, just before and 4 hours after the administration with blood pressure recorder 8002 made by W+W Electronic.

rats = system: rats
Description: Rats were sacrificed under anesthesia with ether. After observation of gross appearance of all the organs, extraction and weighing were made on spleen, lung, liver, adrenal, heart, thymus, kidney, testicles, hypophysis and thyroid. In addition to the above organs, femoral bone marrow, lymph node, stomach, intestine, pancreas, urinary bladder, prostate and central nervous system were removed and fixed in 10% formaline solution.

blood pressure of SHR [2] = assay: Antihypertensive effect by single oral administration, SHR, modified tail-cuff method; type: in vivo, rat (spontaneously hypertensive rats
Description: The effect was examined through both direct and modified tail-cuff methods using male SHRs aged 25 to 30 weeks and weighing about 300 g.

central nervous system = assay: Behavior-pharmacological studies, central nervous system depressing effect; design: species or system mouse (dd-strain); settings: mouse, in vivo
Description: Effects on central nervous system were studied as follows: […]

Description for hexobarbital hypnosis: Period of induced sleeping was measured with righting reflex as a parameter.

For `COC(=O)[C@H]1[C@H]2C[C@@H]3c4[nH]c5cc(OC)ccc5c4CCN3C[C@H]2C[C@@H](O)[C@@H]1OC` [MR, methylreserpate], the “Number of Animals that fell” value (motorability) was 4 Number of Animals, the solubility in chloroform (Solubility) was “easily soluble” and the solubility in ethanol (Solubility) was “easily soluble”. The solubility in methanol (Solubility) was “easily soluble”, the solubility in water (Solubility) was “hardly soluble” and the “blood pressure 24 hours after administration” value (blood pressure of SHR [1]; oral, once a day over 2 weeks) was “had returned almost to the original level”. For the same compound, the “disappearance of effect compared with RSP” value (blood pressure of SHR [1]; rat, in vivo) was “disappears more rapidly than that of RSP”, the tolerance (blood pressure of SHR [1]; repeated administration over 2 weeks) was “hardly giving tolerance” and the long lasting effect (blood pressure of SHR [1]; single and repeated administration to SHRs) was “no long lasting effect”. The “Hypnotic Time” value (hexobarbital hypnosis; 25 mg/kg oral) was 159 ± 7 s, the “Sleeping Time” value (hexobarbital hypnosis; 25 mg/kg oral) was 34.2 ± 6.7 min and the “Hypnotic Time” value (hexobarbital hypnosis; mouse, in vivo) was 144 ± 7 s. For the same compound, the “Sleeping Time” value (hexobarbital hypnosis; mouse, in vivo) was 32.9 ± 4.4 min, the “influence on time to induce sleep and sleeping period” value (hexobarbital hypnosis; mouse, in vivo) was “did not influence” and the “Absolute weight Brain” value (rats; 25.0 mg/kg) was 2.26 ± 0.04 g. For the same compound, the “Absolute weight Hypophysis” value (rats; 25.0 mg/kg) was 11.98 ± 0.44 mg, the “Absolute weight Kidney” value (rats; 25.0 mg/kg) was 1.20 ± 0.04 g and the “Absolute weight Liver” value (rats; 25.0 mg/kg) was 10.00 ± 0.47 g. The “Absolute weight Lung” value (rats; 25.0 mg/kg) was 2.35 ± 0.05 g, the “Absolute weight Spleen” value (rats; 25.0 mg/kg) was 0.71 ± 0.03 g and the “Absolute weight Thymus” value (rats; 25.0 mg/kg) was 0.54 ± 0.02 g. The “Absolute weight Thyroid” value (rats; 25.0 mg/kg) was 10.07 ± 0.55 mg, the “Absolute weight Salivary” value (rats; 25.0 mg/kg, P<0.01) was 0.26 ± 0.01 g and the “Absolute weight Brain” value (rats; 50.0 mg/kg) was 2.26 ± 0.03 g. The “Absolute weight Hypophysis” value (rats; 50.0 mg/kg) was 11.93 ± 0.48 mg, the “Absolute weight Kidney” value (rats; 50.0 mg/kg) was 1.19 ± 0.03 g and the “Absolute weight Liver” value (rats; 50.0 mg/kg) was 10.16 ± 0.33 g. The “Absolute weight Lung” value (rats; 50.0 mg/kg) was 2.26 ± 0.10 g, the “Absolute weight Spleen” value (rats; 50.0 mg/kg) was 0.73 ± 0.03 g and the “Absolute weight Thymus” value (rats; 50.0 mg/kg) was 0.58 ± 0.05 g. The “Absolute weight Thyroid” value (rats; 50.0 mg/kg) was 8.55 ± 0.50 mg, the “Absolute weight Salivary” value (rats; 50.0 mg/kg, P<0.05) was 0.26 ± 0.01 g and the “absolute weight of other organs” value (rats; 100 mg/kg) was “decrease in weight of the other organs”. For the same compound, the “Absolute weight Hypophysis” value (rats; 100.0 mg/kg) was 10.46 ± 0.17 mg, the “Absolute weight Spleen” value (rats; 100.0 mg/kg) was 0.56 ± 0.03 g and the “Absolute weight Thyroid” value (rats; 100.0 mg/kg) was 7.86 ± 0.38 mg. The “Absolute weight Kidney” value (rats; 100.0 mg/kg, P<0.01) was 0.89 ± 0.03 g, the “Absolute weight Salivary” value (rats; 100.0 mg/kg, P<0.01) was 0.21 ± 0.01 g and the “Absolute weight Thymus” value (rats; 100.0 mg/kg, P<0.01) was 0.39 ± 0.03 g. For the same compound, the “Absolute weight Brain” value (rats; 100.0 mg/kg, P<0.05) was 2.17 ± 0.04 g, the “Absolute weight Liver” value (rats; 100.0 mg/kg, P<0.05) was 7.55 ± 0.32 g and the “Absolute weight Lung” value (rats; 100.0 mg/kg, P<0.05) was 2.10 ± 0.06 g. The absolute adrenal weight (rats; 25 and 50 mg/kg groups) was “weight increase of adrenal”, the “Absolute weight Brain” value (rats; rat, in vivo) was 2.28±0.03 and the “Absolute weight Hypophysis” value (rats; rat, in vivo) was 10.60±0.41. For the same compound, the “Absolute weight Kidney” value (rats; rat, in vivo) was 1.17±0.05, the “Absolute weight Liver” value (rats; rat, in vivo) was 10.18±0.50 and the “Absolute weight Lung” value (rats; rat, in vivo) was 1.32±0.12. The “Absolute weight Salivary” value (rats; rat, in vivo) was 0.27±0.01, the “Absolute weight Spleen” value (rats; rat, in vivo) was 0.69±0.03 and the “Absolute weight Thymus” value (rats; rat, in vivo) was 0.63±0.04. The “Absolute weight Thyroid” value (rats; rat, in vivo) was 8.59±0.50, the “gross appearance of organs” value (rats; rat, in vivo) was “no noteworthy change” and the “maximum rate of blood pressure decrease” value (blood pressure of SHR [2]; 6.25 mg/kg oral) was 31.7%. For the same compound, the “time to reach original blood pressure level” value (blood pressure of SHR [2]; 6.25 mg/kg oral) was 48 h, the “time to reach original blood pressure level” value (blood pressure of SHR [2]; 25 mg/kg oral) was 72 h and the “maximum rate of blood pressure decrease” value (blood pressure of SHR [2]; 25.0 mg/kg oral) was 42.5%. For the same compound, the “time from which blood pressure gradually returned” value (blood pressure of SHR [2]; after plateau, 6.25, 12.5 and 25 mg/kg oral) was “about 12 hours” and the “central nervous system depressing effect compared with RSP” value (central nervous system) was “weaker than that of RSP”.
